# Article PMC12064818, “A general assay platform to study protein pharmacology using ligand-dependent structural dynamics” (Nature Communications, 2025)
# Biological target: T1, Nano luciferase (NLuc) (Oplophorus gracilirostris, UniProt Q9GV45, A31E/A60N/A81I/F95D/I117V/K70R/L54V/L99Q/M102K/N193R/P142E/Q151K/Q38R/Q45L/V71I/Y165I)
# T1 construct: His tag (inferred from IMAC purification); made in house; host or cells: E. coli
# Assay: Thermal shift profiles (Thermofluor assay), NLuc
# Assay type: binding
# Parameters: unit of the concentration uncertain
# Conditions: compound 100 (unit uncertain); for Thermofluor NLuc, ATP: ATP (2 mM)
# Method: Thermal stabilization of proteins in the presence of the ligands were determined using Thermofluor technique. MicroAmp optical 384-well plates (Applied Biosystems by Life Technologies), ViiA 7 real-time PCR instrument (Applied Biosystems by Life Technologies) and SYPRO Orange (Life Technologies) were used to test the samples. […]. Proteins were added to the 384-well plate first followed by the compounds. Samples were incubated for 10 mins at room temperature and protected from light. SYPRO Orange dye was diluted to 50x from 5000x stock in a PBS buffer, and 4 µL dye was added to the each well using a multi-channel pipette. The plate was sealed with a MicroAmp optical adhesive film, centrifuged at 1500 RPM for 2 min, and then loaded onto the ViiA 7 real–time PCR instrument for fluorescence intensity measurements upon heating the sample from 25 to 95 °C at 1 °C/min increments. Data was exported to excel, fluorescence intensity data and its first derivative were normalized and plotted using GraphPad Prism to determine Tm. See Supplementary Table 3 for additional details.
# Supplementary Figure 6. Comparison of SDR and Thermofluor analysis of […]
# Temperature °C Temperature °C […]
# Supplementary Table 3. Protocol for Thermofluor assay
# Supplementary Table 3: Protocol for Therm ofluor assay
# Sequence Param eter Value Description […]
# 3 Incubation 10 m ins Room tem perature, protected from light
# 4 Dye 10X Sypro Orange dye in PBS added to the sam ple
# 5 Centrifugation 2 m in Centrifuge for 2 m in at 1500 RPM at RT
# 6 Read ViiA7 Read the therm al unfolding of the protein with ViiA7 real-tim e PCR system
# 4 Prepare 50X dye in PBS: 1 μL Sypro Orange 5000X (Life Technologies), 99 μL ddH2O. Add 4 μL to each well Read the m elting tem perature from 25 to 95 °C using ViiA 7 real tim e PCR instrum ent by following the below instructions Perform therm al denaturation in 384-well assay plate
# (i) Place the assay plate into the Applied Biosystem s ViiA7 real-tim e PCR instrum ent and open the ViiA7 RUO software.
# Under Experim ental Properties, select the following param eters: Set up: […] (20 μl), Experim ent type: MELT CURVE, Reagents used to detect target sequence: OTHER, Ram p Speed: […]
# (ii) Select the Define tab on the left, then select the following param eters: Target nam e: TARGET 1, Reporter: ROX, 6 Quencher: NONE, Passive Reference: NONE
# (iii) Select the Assign tab on the left, then perform the following actions: Highlight all 384 wells in the assay plate and check the box next to ‘Target 1’ on the top left of the plate layout. Note: check the ‘Sam ple’ box on the lower left.
# (iv) Select the Run Method tab on the left, then m ake the following changes to the default Melt Curve profile: Delete Step 2 of the default cycle, change run m ethod to “Step and Hold” with a 1:00 tim e, set the following tem peratures: an initial 2:00 hold at 25 °C (4 °C), ram ping up in increm ents of 1 ° C to a final tem perature of 95 °C (with a 2:00 hold), click on all three cam eras to activate fluorescence detection throughout the experim ent, and Select total volum e per well of 20 μl
# (v) Click on the RUN tab to the left to initiate therm al denaturation.
# T1 sequence (Q9GV45 other isoform, or with tags, fused parts or gaps with the stated changes): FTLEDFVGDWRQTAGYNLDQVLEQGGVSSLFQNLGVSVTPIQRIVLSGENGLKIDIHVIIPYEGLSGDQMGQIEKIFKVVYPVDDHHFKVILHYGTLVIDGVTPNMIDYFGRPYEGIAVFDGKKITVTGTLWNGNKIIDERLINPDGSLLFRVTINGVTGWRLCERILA
structure (smiles),measurement,setting,value
COc1ccc(NC(=O)C2CCN(C(=O)c3ncn4c3COC(c3ccccc3)C4)CC2)cc1Cl (stereo not drawn) [NCGC 00449919],"Thermofluor NLuc, No ATP",20.000 °C,1
same,"Thermofluor NLuc, ATP",20.000 °C,0.908
same,"Thermofluor NLuc, No ATP",20.993 °C,0.737
same,"Thermofluor NLuc, ATP",20.993 °C,0.958
same,"Thermofluor NLuc, No ATP",21.987 °C,0.665
same,"Thermofluor NLuc, ATP",21.987 °C,0.992
same,"Thermofluor NLuc, No ATP",22.980 °C,0.636
same,"Thermofluor NLuc, ATP",22.980 °C,1
same,"Thermofluor NLuc, No ATP",23.974 °C,0.59
same,"Thermofluor NLuc, ATP",23.974 °C,0.981
same,"Thermofluor NLuc, No ATP",24.967 °C,0.577
same,"Thermofluor NLuc, ATP",24.967 °C,0.945
same,"Thermofluor NLuc, No ATP",25.960 °C,0.551
same,"Thermofluor NLuc, ATP",25.960 °C,0.901
same,"Thermofluor NLuc, No ATP",26.954 °C,0.532
same,"Thermofluor NLuc, ATP",26.954 °C,0.858
same,"Thermofluor NLuc, No ATP",27.947 °C,0.492
same,"Thermofluor NLuc, ATP",27.947 °C,0.821
same,"Thermofluor NLuc, No ATP",28.940 °C,0.484
same,"Thermofluor NLuc, ATP",28.940 °C,0.79
same,"Thermofluor NLuc, No ATP",29.934 °C,0.475
same,"Thermofluor NLuc, ATP",29.934 °C,0.766
same,"Thermofluor NLuc, No ATP",30.927 °C,0.424
same,"Thermofluor NLuc, ATP",30.927 °C,0.748
same,"Thermofluor NLuc, No ATP",31.921 °C,0.447
same,"Thermofluor NLuc, ATP",31.921 °C,0.735
same,"Thermofluor NLuc, No ATP",32.914 °C,0.416
same,"Thermofluor NLuc, ATP",32.914 °C,0.726
same,"Thermofluor NLuc, No ATP",33.907 °C,0.402
same,"Thermofluor NLuc, ATP",33.907 °C,0.72
same,"Thermofluor NLuc, No ATP",34.901 °C,0.393
same,"Thermofluor NLuc, ATP",34.901 °C,0.716
same,"Thermofluor NLuc, No ATP",35.894 °C,0.367
same,"Thermofluor NLuc, ATP",35.894 °C,0.71
same,"Thermofluor NLuc, No ATP",36.887 °C,0.355
same,"Thermofluor NLuc, ATP",36.887 °C,0.703
same,"Thermofluor NLuc, No ATP",37.881 °C,0.332
same,"Thermofluor NLuc, ATP",37.881 °C,0.693
same,"Thermofluor NLuc, No ATP",38.874 °C,0.332
same,"Thermofluor NLuc, ATP",38.874 °C,0.683
same,"Thermofluor NLuc, No ATP",39.868 °C,0.308
same,"Thermofluor NLuc, ATP",39.868 °C,0.672
same,"Thermofluor NLuc, No ATP",40.861 °C,0.311
same,"Thermofluor NLuc, ATP",40.861 °C,0.661
same,"Thermofluor NLuc, No ATP",41.854 °C,0.286
same,"Thermofluor NLuc, ATP",41.854 °C,0.65
same,"Thermofluor NLuc, No ATP",42.848 °C,0.281
same,"Thermofluor NLuc, ATP",42.848 °C,0.638
same,"Thermofluor NLuc, No ATP",43.841 °C,0.279
same,"Thermofluor NLuc, ATP",43.841 °C,0.624
same,"Thermofluor NLuc, No ATP",44.835 °C,0.247
same,"Thermofluor NLuc, ATP",44.835 °C,0.61
same,"Thermofluor NLuc, No ATP",45.828 °C,0.259
same,"Thermofluor NLuc, ATP",45.828 °C,0.594
same,"Thermofluor NLuc, No ATP",46.821 °C,0.247
same,"Thermofluor NLuc, ATP",46.821 °C,0.579
same,"Thermofluor NLuc, No ATP",47.815 °C,0.245
same,"Thermofluor NLuc, ATP",47.815 °C,0.563
same,"Thermofluor NLuc, No ATP",48.808 °C,0.238
same,"Thermofluor NLuc, ATP",48.808 °C,0.547
same,"Thermofluor NLuc, No ATP",50.795 °C,0.24
same,"Thermofluor NLuc, ATP",50.795 °C,0.504
same,"Thermofluor NLuc, No ATP",51.788 °C,0.229
same,"Thermofluor NLuc, ATP",51.788 °C,0.47
same,"Thermofluor NLuc, No ATP",52.782 °C,0.227
same,"Thermofluor NLuc, ATP",52.782 °C,0.422
same,"Thermofluor NLuc, No ATP",53.775 °C,0.227
same,"Thermofluor NLuc, ATP",53.775 °C,0.36
same,"Thermofluor NLuc, No ATP",54.768 °C,0.248
same,"Thermofluor NLuc, ATP",54.768 °C,0.285
same,"Thermofluor NLuc, No ATP",55.762 °C,0.239
same,"Thermofluor NLuc, ATP",55.762 °C,0.202
same,"Thermofluor NLuc, No ATP",56.755 °C,0.264
same,"Thermofluor NLuc, ATP",56.755 °C,0.122
same,"Thermofluor NLuc, No ATP",57.748 °C,0.317
same,"Thermofluor NLuc, ATP",57.748 °C,0.055
same,"Thermofluor NLuc, No ATP",58.742 °C,0.38
same,"Thermofluor NLuc, ATP",58.742 °C,0.012
same,"Thermofluor NLuc, No ATP",59.735 °C,0.412
same,"Thermofluor NLuc, ATP",59.735 °C,0
same,"Thermofluor NLuc, No ATP",60.729 °C,0.472
same,"Thermofluor NLuc, ATP",60.729 °C,0.021
same,"Thermofluor NLuc, No ATP",61.722 °C,0.524
same,"Thermofluor NLuc, ATP",61.722 °C,0.072
same,"Thermofluor NLuc, No ATP",62.715 °C,0.52
same,"Thermofluor NLuc, ATP",62.715 °C,0.145
same,"Thermofluor NLuc, No ATP",63.709 °C,0.568
same,"Thermofluor NLuc, ATP",63.709 °C,0.233
same,"Thermofluor NLuc, No ATP",65.695 °C,0.566
same,"Thermofluor NLuc, ATP",65.695 °C,0.416
same,"Thermofluor NLuc, No ATP",66.689 °C,0.551
same,"Thermofluor NLuc, ATP",66.689 °C,0.499
same,"Thermofluor NLuc, No ATP",68.676 °C,0.541
same,"Thermofluor NLuc, ATP",68.676 °C,0.632
same,"Thermofluor NLuc, No ATP",69.669 °C,0.515
same,"Thermofluor NLuc, ATP",69.669 °C,0.682
same,"Thermofluor NLuc, No ATP",70.662 °C,0.497
same,"Thermofluor NLuc, ATP",70.662 °C,0.723
same,"Thermofluor NLuc, No ATP",71.656 °C,0.488
same,"Thermofluor NLuc, ATP",71.656 °C,0.755
same,"Thermofluor NLuc, No ATP",72.649 °C,0.477
same,"Thermofluor NLuc, ATP",72.649 °C,0.781
same,"Thermofluor NLuc, No ATP",73.643 °C,0.428
same,"Thermofluor NLuc, ATP",73.643 °C,0.8
same,"Thermofluor NLuc, No ATP",74.636 °C,0.405
same,"Thermofluor NLuc, ATP",74.636 °C,0.812
same,"Thermofluor NLuc, No ATP",75.629 °C,0.392
same,"Thermofluor NLuc, ATP",75.629 °C,0.819
